Data published in patent US3980794A, “Method for promoting growth of poultry with 3-(5-nitro-2-imidazolyl)pyrazoles” (Eli Lilly and Company, priority 1975, dated 1976).
Converted amounts (≈) assume the structure as drawn.

Key:
[1] = test system: Pasteurella multocida and Pasteurella hemolytica; assay: In vivo activity against pasteurellosis in calves (Experiment 10)
Protocol: The in vivo activity of compound 1 against pasteurellosis in calves was determined in the following manner. Twelve calves weighing approximately 180 pounds each were obtained from a commercial source and were brought to the research facility where they were weighed individually and identified by ear tag. The calves were divided into two groups of six calves each, and two hundred thousand ascaris ova were administered to each calf seven days prior to the pasteurella challenge. […] The compound was administered orally in two equal doses of 2000 mg. each, using capsules containing 500 mg. of compound each. The actual dosage of the test compound ranged from about 45 to about 55 mg. per kilo per head per day. The treatment was initiated one day prior to the pasteurella challenge and was continued daily for a total of seven days. […] The pasteurella challenge was prepared using three isolates of Pasteurella multocida and three isolates of Pasteurella hemolytica, all of bovine origin. The isolates were grown in tryptose culture for about 18 hours and then mixed in equal parts in a challenge cocktail. Approximately 0.1 ml. was used to aerosol-expose each calf. This exposure was carried out by placing a plastic bag over the head of each calf and running the aerosol into the bag. The pasteurella challenge was timed to coincide with the period of mechanical injury to the lung tissue caused by the […] larvae migration. […] All the calves were sacrificed on the tenth day post-pasteurella challenge, and the extent of pneumonic lesions in the lung tissues noted. Thus, after the calves were sacrificed, the lungs were removed from each calf and examined for lesions grossly. In addition, attempts were made to re-isolate pasteurella from the pneumonic lung tissue.

Salmonella choleraesuis = assay: In vivo activity against Salmonella choleraesuis in pigs (Experiment 14)
Protocol: The in vivo activity of compound 1 against Salmonella choleraesuis was determined in the following manner.
Twenty-four healthy feeder pigs were purchased from a local farm and brought to the research facility where they were weighed individually and identified by ear tag. Four groups of six pigs each were formed so that the average pig weight per group was similar.
Two groups of pigs were given compound 1 at a level of 50 g./ton in the feed. The remaining two groups of pigs were fed the same basal ration without compound 1. Twenty-four hours after initiation of the compound 1 feed treatment, all four groups were challenged orally using 10 ml. of a broth culture of Salmonella choleraesuis.
The pigs were weighed weekly throughout the duration of the experiment and on the 28th day postsalmonella challenge, each surviving pig was killed and the salmonella-caused lesions were recorded. Chart 14, which follows, contains a summary of the results from the trial.

[2] = Growth promotion efficacy in broiler chicks (Experiment 7); format: in vivo; conditions: for F/G (feed conversion) / Wt. Gn. (average weight gain) / % Impr. in feed conversion / % Impr. in weight gain: 21 days; for % Impr. in feed conversion / % Impr. in weight gain: compared to contemporary control
Source text: 5-Amino-1-methyl-3-(1-methyl-5-nitro-2-imidazolyl)pyrazole-4-carbonitrile, compound 1, was fed to broiler chicks to evaluate its growth promotion efficacy.
The compound was fed at levels of 10, 25 and 50 g./ton of typical broiler rations (set forth below) to a total of 120 replicates of 8 birds each in four time-replicated studies.
All the birds in the tests were pre-brooded for seven days in floor pens before being placed on treatment. The treatment period extended for 21 days in starter batteries. Feed and water were provided ad libitum at all times. A nontreated feed was fed during the pre-brood period.
The results of the studies are presented in Chart 8. In the chart, column 1 gives the identification of the test compound; column 2, the level of administration of the test compound in the feed; column 3, the number of replicates per treatment; column 4, the average weight gain in grams; column 5, the percent improvement in weight gain; column 6, the feed conversion, which is the ratio of the feed consumed (F) to the weight gained (G); and column 7, the percent improvement in feed conversion.
All 10 and 50 g. data were obtained using Diet 1. The 25 g. data were obtained using Diet 1 (25%) and Diet 2 (75%).

Treponema hyodysenteriae = assay: In vitro activity against Treponema hyodysenteriae (Experiment 8); format: cell-based; conditions: Brachyspira hyodysenteriae; repeat test, doubling dilutions 100 to 0.048 mcg./ml.; read-out: minimum inhibitory concentration (MIC)
Protocol: A number of representative compounds, namely, 1, 5, 6, 7, 12, 13D, 14, and 18, were tested for their in vitro activity against Treponema hyodysenteriae. The treponema were propagated on blood agar plates. Each plate which was prepared contained 20 ml. of trypticase soy agar (Baltimore Biological Laboratory [BBL]) with 5.0 g./l. of yeast extract (Difco) and 5 percent sterile defibrinated horse blood. The plates were sterile plastic 15 × 100 mm. petri plates. Incubation was carried out at 37°C. for 4 days under anaerobic conditions using the BBL Gas Pak system.
The concentrations of test compounds in this initial test were prepared in dilutions ranging from 2000 mcg./ml. to 7.8 mcg./ml. The test procedure was carried out in the following manner. Five ml. of a twenty-fold concentration in tryptose broth (Difco) of each filter-sterilized test compound dilution was mixed in a series of flasks containing 90 ml. of melted trypticase soy agar with yeast extract. Five ml. of horse blood was then added per flask. The contents of these flasks were then used to prepare a series of blood agar plates in doubling decreasing dilutions ranging from 100 mcg./ml. to 0.39 mcg./ml.
The treponema for inoculation of these plates were obtained by adding 3.0 ml. of sterile tryptose broth to the surface of a plate on which the treponema had been propagated. […]

[3] = 50 g./ton continuous, total of both replicates
[4] = 25 g./t. fed, Diet 1 (25%) and Diet 2 (75%)

For `Cn1nc(-c2ncc([N+](=O)[O-])n2C)c(C#N)c1N` [Compound 1, 5-Amino-1-methyl-3-(1-methyl-5-nitro-2-imidazolyl)pyrazole-4-carbonitrile], the “pasteurella colonies in lungs of a third treated calf” value ([1]; at necropsy) was “only three pasteurella colonies”, the “calves with moderate number of pasteurella colonies in lungs” value ([1]; at necropsy, six calves) was “Another treated calf” and the “calves with numerous colonies of pasteurella in lungs” value ([1]; at necropsy, six calves) was “One of the treated calves”. The “calves yielding no pasteurella from the lung tissue” value ([1]; at necropsy, six calves) was “Three of the treated calves”, the “treatment response (control of lung lesions and reisolation of pasteurella)” value ([1]; oral, about 45 to about 55 mg. per kilo per day) was “All the calves treated with compound 1 showed a treatment response” and the body temperature ([1]; oral, about 45 to about 55 mg. per kilo per head per day, versus infected control) was “considerably lower”. For the same molecule, the “calves with moderate pneumonic lung lesion” value ([1]; oral, tenth day post-challenge, six calves) was “A single treated calf”, the mortality (Salmonella choleraesuis; 50 g./ton continuous) was “prevented mortality” and the “Mean Pig Wt.” value (Salmonella choleraesuis; 50 g./ton continuous, Avg., day 0) was 30.0 Lbs. For the same molecule, the “Mean Pig Wt.” value (Salmonella choleraesuis; 50 g./ton continuous, Avg., day 7) was 31.8 Lbs, the “Mean Pig Wt.” value (Salmonella choleraesuis; 50 g./ton continuous, Avg., day 14) was 33.5 Lbs and the “Mean Pig Wt.” value (Salmonella choleraesuis; 50 g./ton continuous, Avg., day 21) was 39.4 Lbs. For the same molecule, the “Mean Pig Wt.” value (Salmonella choleraesuis; 50 g./ton continuous, Avg., day 28) was 45.5 Lbs, the “Lesions at Necropsy” value (Salmonella choleraesuis; 50 g./ton continuous, Rep. 1) was 2/6 and the “No. Dead/No. in Grp.” value (Salmonella choleraesuis; 50 g./ton continuous, Rep. 1) was 0/6. For the same molecule, the “Mean Pig Wt.” value (Salmonella choleraesuis; 50 g./ton continuous, Rep. 1, day 0) was 30.2 Lbs, the “Mean Pig Wt.” value (Salmonella choleraesuis; 50 g./ton continuous, Rep. 1, day 7) was 32.5 Lbs and the “Mean Pig Wt.” value (Salmonella choleraesuis; 50 g./ton continuous, Rep. 1, day 14) was 33.8 Lbs. For the same molecule, the “Mean Pig Wt.” value (Salmonella choleraesuis; 50 g./ton continuous, Rep. 1, day 21) was 38.8 Lbs, the “Mean Pig Wt.” value (Salmonella choleraesuis; 50 g./ton continuous, Rep. 1, day 28) was 44.2 Lbs and the “Lesions at Necropsy” value (Salmonella choleraesuis; 50 g./ton continuous, Rep. 2) was 1/6. The “No. Dead/No. in Grp.” value (Salmonella choleraesuis; 50 g./ton continuous, Rep. 2) was 0/6, the “Mean Pig Wt.” value (Salmonella choleraesuis; 50 g./ton continuous, Rep. 2, day 0) was 29.7 Lbs and the “Mean Pig Wt.” value (Salmonella choleraesuis; 50 g./ton continuous, Rep. 2, day 7) was 31.0 Lbs. The “Mean Pig Wt.” value (Salmonella choleraesuis; 50 g./ton continuous, Rep. 2, day 14) was 33.2 Lbs, the “Mean Pig Wt.” value (Salmonella choleraesuis; 50 g./ton continuous, Rep. 2, day 21) was 40.0 Lbs and the “Mean Pig Wt.” value (Salmonella choleraesuis; 50 g./ton continuous, Rep. 2, day 28) was 46.7 Lbs. For the same molecule, the “improved weight gain over that of infected pigs” value (Salmonella choleraesuis; 50 g./ton continuous, average) was 4.3 lbs./pig, the “Lesions at Necropsy” value (Salmonella choleraesuis; [3]) was 3/12 and the “No. Dead/No. in Grp.” value (Salmonella choleraesuis; [3]) was 0/12. For the same molecule, the “control of Salmonella choleraesuis in swine” value (Salmonella choleraesuis; compound 1 in the feed about 50 g./ton) was “effective in the control of Salmonella choleraesuis in swine”, the “F/G (feed conversion)” value ([2]; 10 g./t. fed, Diet 1) was 1.580 and the “Wt. Gn. (average weight gain)” value ([2]; 10 g./t. fed, Diet 1) was 580 g. For the same molecule, the “% Impr. in feed conversion” value ([2]; 10 g./t. fed) was 2.35%, the “% Impr. in weight gain” value ([2]; 10 g./t. fed) was 4.50% and the “F/G (feed conversion)” value [2, 4] was 1.751. The “Wt. Gn. (average weight gain)” value [2, 4] was 468 g, the “% Impr. in feed conversion” value ([2]; 25 g./t. fed) was 4.68% and the “% Impr. in weight gain” value ([2]; 25 g./t. fed) was 6.12%. For the same molecule, the “F/G (feed conversion)” value ([2]; 50 g./t. fed, Diet 1) was 1.578, the “Wt. Gn. (average weight gain)” value ([2]; 50 g./t. fed, Diet 1) was 564 g and the “% Impr. in feed conversion” value ([2]; 50 g./t. fed) was 4.54%. The “% Impr. in weight gain” value ([2]; 50 g./t. fed) was 3.87%, the growth promoter effectiveness ([2]; oral to chicks, compound 1 at about 10 to about 50 g. per ton of feed) was “effective as a growth promoter” and the MIC (Treponema hyodysenteriae) was 0.097 µg/mL (≈ 0.392 µM).
